Results taken from patent US20160120877A1, “PHARMACEUTICAL COMPOSITIONS FOR SUSTAINED DELIVERY OF BENZODIAZEPINE ANTAGONISTS” (priority 2010, published 2016).

Columns and labels:
[1] = Dialysis diffusion: effect of dialysate volume; assay type: physicochemical; settings: 0.25 g of 3% solution in NMP
Protocol: Dissolution apparatus: Vankel VK 7000 (Agilent Technologies Australia)
Dialysis bags: dialysis tubing cellulose membrane from Sigma-Aldrich Australia—average flat width 25 mm, average diameter 16 mm (when full), retains >90% of cytocrome C (M.W. 12.400) in solution over a 10 hrs period.
(§1) Dialysis tubing cellulose membrane was cut into approximately 8 cm lengths, washed with hot water for 3 hours. Tubing was then treated with 0.3% (w/v) solution of sodium sulfide at 80° C. for 1 minute, washed with hot water (60° C.) for 2 minutes and followed by acidification with 0.2% sulfuric acid. Tubing was then rinsed with hot water to remove the acid. Test formulations were added, the tubing closed with nylon closures and placed in the dialysate. At various time periods, the dialysate was sampled and the flumazenil released measured by HPLC assay.
Chromatography column: C18-250 mm×4.6 mm×5 μm (Sigma Aldrich Australia)
Mobile phase: H2O pH 2:methanol:tetrahydrofuran (80:13:7)
Injection volume: 10 μl and 100 μl
Experiments were conducted to check the influence of the volume of the dialysis medium (dialysate) on diffusion rate.
A=800 ml of phosphate buffer pH 4.0
B=600 ml of phosphate buffer pH 4.0
0.25 g of 3% flumazenil solution in N-Methyl-2-Pyrrolidinone (NMP)

methamphetamine cravings = settings: clinical trials, along with hydroxyzine and gabapentin; cited from earlier work
[2] = Dialysis diffusion: effect of sample size; assay type: physicochemical
Protocol: as §1
Experiments were conducted to test the influence of sample size on diffusion rate.
(§2) As described in 1.1 with 600 ml of phosphate buffer pH 4.0 as dialysate.
A=0.125 g of a 3% flumazenil solution in NMP
B=0.250 g of a 3% flumazenil solution in NMP
C=0.500 g of a 3% flumazenil solution in NMP

[3] = Dialysis diffusion: effect of sample concentration; assay type: physicochemical
Protocol: as §1
Experiments were conducted to test the effect of sample concentration on diffusion rate.
as §2
(§3) A=0.25 g of a 1.5% flumazenil solution in NMP
B=0.25 g of a 3.0% flumazenil solution in NMP
C=0.25 g of a 4.5% flumazenil solution in NMP

[4] = Dialysis diffusion: effect of concentration and sample size (same quantity of flumazenil); assay type: physicochemical
Protocol: as §1
Experiments were conducted to test the effect of different concentrations and different sample sizes (but same quantity of flumazenil) on diffusion rate.
as §2, §3
B=0.125 g of a 3% flumazenil solution in NMP
C=0.083 g of a 4.5% flumazenil solution in NMP

[5] = sample A1 (0.25 g of 1.5% solution in NMP), 1 h
[6] = sample A1 (0.25 g of 1.5% solution in NMP), 2 h
[7] = sample A1 (0.25 g of 1.5% solution in NMP), 3 h
[8] = sample A2 (0.25 g of 1.5% solution in NMP), 1 h
[9] = sample A2 (0.25 g of 1.5% solution in NMP), 2 h
[10] = sample A2 (0.25 g of 1.5% solution in NMP), 3 h
[11] = sample A (0.25 g of 1.5% solution in NMP)

## CCOC(=O)c1ncn2c1CN(C)C(=O)c1cc(F)ccc1-2 [flumazenil, ethyl 8-fluoro-5,6-dihydro-5-methyl-6-oxo-4H-imidazo[1,5-a](1,4)benzodiazepine-3-carboxylate]
[1]; A1 (800 ml dialysate pH 4.0), 1 h
  % flumazenil released: 57.6%
[1]; A1 (800 ml dialysate pH 4.0), 2 h
  % flumazenil released: 73.1%
[1]; A1 (800 ml dialysate pH 4.0), 4 h
  % flumazenil released: 94.5%
[1]; A1 (800 ml dialysate pH 4.0), 6 h
  % flumazenil released: 100.9%
[1]; A1 (800 ml dialysate pH 4.0), 24 h
  % flumazenil released: 100.7%
[1]; A2 (800 ml dialysate pH 4.0), 1 h
  % flumazenil released: 50.3%
[1]; A2 (800 ml dialysate pH 4.0), 2 h
  % flumazenil released: 66.0%
[1]; A2 (800 ml dialysate pH 4.0), 4 h
  % flumazenil released: 88.6%
[1]; A2 (800 ml dialysate pH 4.0), 6 h
  % flumazenil released: 98.9%
[1]; A2 (800 ml dialysate pH 4.0), 24 h
  % flumazenil released: 101.7%
[1]; B1 (600 ml dialysate pH 4.0), 1 h
  % flumazenil released: 52.2%
[1]; B1 (600 ml dialysate pH 4.0), 2 h
  % flumazenil released: 69.2%
[1]; B1 (600 ml dialysate pH 4.0), 4 h
  % flumazenil released: 92.7%
[1]; B1 (600 ml dialysate pH 4.0), 6 h
  % flumazenil released: 99.2%
[1]; B1 (600 ml dialysate pH 4.0), 24 h
  % flumazenil released: 100.64%
[1]; B2 (600 ml dialysate pH 4.0), 1 h
  % flumazenil released: 50.5%
[1]; B2 (600 ml dialysate pH 4.0), 2 h
  % flumazenil released: 66.5%
[1]; B2 (600 ml dialysate pH 4.0), 4 h
  % flumazenil released: 89.2%
[1]; B2 (600 ml dialysate pH 4.0), 6 h
  % flumazenil released: 98.0%
[1]; B2 (600 ml dialysate pH 4.0), 24 h
  % flumazenil released: 99.2%
[1]; dialysate A (800 ml)
  time to reach equilibrium: around 6 hours
[1]; dialysate B (600 ml)
  time to reach equilibrium: around 6 hours
Methamphetamine cravings
  methamphetamine cravings: substantially reduce methamphetamine cravings
[2]; sample A1 (0.125 g of 3% solution in NMP), 1 h
  % flumazenil released: 85.8%
[2]; sample A1 (0.125 g of 3% solution in NMP), 2 h
  % flumazenil released: 94.9%
[2]; sample A1 (0.125 g of 3% solution in NMP), 4 h
  % flumazenil released: 100.1%
[2]; sample A1 (0.125 g of 3% solution in NMP), 6 h
  % flumazenil released: 101.8%
[2]; sample A1 (0.125 g of 3% solution in NMP), 24 h
  % flumazenil released: 101.6%
[2]; sample A2 (0.125 g of 3% solution in NMP), 1 h
  % flumazenil released: 77.9%
[2]; sample A2 (0.125 g of 3% solution in NMP), 2 h
  % flumazenil released: 90.8%
[2]; sample A2 (0.125 g of 3% solution in NMP), 4 h
  % flumazenil released: 99.1%
[2]; sample A2 (0.125 g of 3% solution in NMP), 6 h
  % flumazenil released: 101.3%
[2]; sample A2 (0.125 g of 3% solution in NMP), 24 h
  % flumazenil released: 102.0%
[2]; sample B1 (0.250 g of 3% solution in NMP), 1 h
  % flumazenil released: 50.9%
[2]; sample B1 (0.250 g of 3% solution in NMP), 2 h
  % flumazenil released: 64.7%
[2]; sample B1 (0.250 g of 3% solution in NMP), 4 h
  % flumazenil released: 87.0%
[2]; sample B1 (0.250 g of 3% solution in NMP), 6 h
  % flumazenil released: 96.3%
[2]; sample B1 (0.250 g of 3% solution in NMP), 24 h
  % flumazenil released: 101.3%
[2]; sample B2 (0.250 g of 3% solution in NMP), 1 h
  % flumazenil released: 50.9%
[2]; sample B2 (0.250 g of 3% solution in NMP), 2 h
  % flumazenil released: 65.2%
[2]; sample B2 (0.250 g of 3% solution in NMP), 4 h
  % flumazenil released: 87.6%
[2]; sample B2 (0.250 g of 3% solution in NMP), 6 h
  % flumazenil released: 97.8%
[2]; sample B2 (0.250 g of 3% solution in NMP), 24 h
  % flumazenil released: 101.3%
[2]; sample C1 (0.500 g of 3% solution in NMP), 1 h
  % flumazenil released: 36.6%
[2]; sample C1 (0.500 g of 3% solution in NMP), 2 h
  % flumazenil released: 45.5%
[2]; sample C1 (0.500 g of 3% solution in NMP), 4 h
  % flumazenil released: 59.3%
[2]; sample C1 (0.500 g of 3% solution in NMP), 6 h
  % flumazenil released: 70.4%
[2]; sample C1 (0.500 g of 3% solution in NMP), 24 h
  % flumazenil released: 100.8%
[2]; sample C2 (0.500 g of 3% solution in NMP), 1 h
  % flumazenil released: 46.5%
[2]; sample C2 (0.500 g of 3% solution in NMP), 2 h
  % flumazenil released: 56.0%
[2]; sample C2 (0.500 g of 3% solution in NMP), 4 h
  % flumazenil released: 71.1%
[2]; sample C2 (0.500 g of 3% solution in NMP), 6 h
  % flumazenil released: 83.1%
[2]; sample C2 (0.500 g of 3% solution in NMP), 24 h
  % flumazenil released: 101.0%
[3]; [5]
  % flumazenil released: 92.9%
[3]; [6]
  % flumazenil released: 100.5%
[3]; [7]
  % flumazenil released: 101.4%
[3]; [8]
  % flumazenil released: 89.8%
[3]; [9]
  % flumazenil released: 100%
[3]; [10]
  % flumazenil released: 101.4%
[3]; [11]
  precipitation during the dialysis: no precipitation was observed
[3]; sample B1 (0.25 g of 3.0% solution in NMP), 1 h
  % flumazenil released: 62.1%
[3]; sample B1 (0.25 g of 3.0% solution in NMP), 2 h
  % flumazenil released: 74.8%
[3]; sample B2 (0.25 g of 3.0% solution in NMP), 1 h
  % flumazenil released: 62.0%
[3]; sample B2 (0.25 g of 3.0% solution in NMP), 2 h
  % flumazenil released: 76.3%
[3]; sample B (0.25 g of 3.0% solution in NMP)
  precipitation during the dialysis: Precipitation was observed
[3]; sample C1 (0.25 g of 4.5% solution in NMP), 1 h
  % flumazenil released: 27.5%
[3]; sample C1 (0.25 g of 4.5% solution in NMP), 2 h
  % flumazenil released: 40.4%
[3]; sample C2 (0.25 g of 4.5% solution in NMP), 1 h
  % flumazenil released: 29.1%
[3]; sample C2 (0.25 g of 4.5% solution in NMP), 2 h
  % flumazenil released: 43.0%
[3]; sample C (0.25 g of 4.5% solution in NMP)
  precipitation during the dialysis: Precipitation was observed
[4]; [5]
  % flumazenil released: 91.0%
[4]; [6]
  % flumazenil released: 100.3%
[4]; [7]
  % flumazenil released: 101.0%
[4]; sample A1 (0.25 g of 1.5% solution in NMP), 4 h
  % flumazenil released: 100.9%
[4]; sample A1 (0.25 g of 1.5% solution in NMP), 5 h
  % flumazenil released: 101.0%
[4]; sample A1 (0.25 g of 1.5% solution in NMP), 6 h
  % flumazenil released: 100.8%
[4]; [8]
  % flumazenil released: 93.2%
[4]; [9]
  % flumazenil released: 100.7%
[4]; [10]
  % flumazenil released: 100.9%
[4]; sample A2 (0.25 g of 1.5% solution in NMP), 4 h
  % flumazenil released: 101.0%
[4]; sample A2 (0.25 g of 1.5% solution in NMP), 5 h
  % flumazenil released: 100.6%
[4]; sample A2 (0.25 g of 1.5% solution in NMP), 6 h
  % flumazenil released: 100.7%
[4]; [11]
  precipitation in bags during the dialysis: no precipitation observed
[4]; sample B1 (0.125 g of 3% solution in NMP), 1 h
  % flumazenil released: 92.3%
[4]; sample B1 (0.125 g of 3% solution in NMP), 2 h
  % flumazenil released: 99.0%
[4]; sample B1 (0.125 g of 3% solution in NMP), 3 h
  % flumazenil released: 100.4%
[4]; sample B1 (0.125 g of 3% solution in NMP), 4 h
  % flumazenil released: 101.1%
[4]; sample B1 (0.125 g of 3% solution in NMP), 5 h
  % flumazenil released: 100.9%
[4]; sample B1 (0.125 g of 3% solution in NMP), 6 h
  % flumazenil released: 101.1%
[4]; sample B2 (0.125 g of 3% solution in NMP), 1 h
  % flumazenil released: 80.6%
[4]; sample B2 (0.125 g of 3% solution in NMP), 2 h
  % flumazenil released: 92.4%
[4]; sample B2 (0.125 g of 3% solution in NMP), 3 h
  % flumazenil released: 97.3%
[4]; sample B2 (0.125 g of 3% solution in NMP), 4 h
  % flumazenil released: 99.3%
[4]; sample B2 (0.125 g of 3% solution in NMP), 5 h
  % flumazenil released: 100.3%
[4]; sample B2 (0.125 g of 3% solution in NMP), 6 h
  % flumazenil released: 100.6%
[4]; sample B (0.125 g of 3% solution in NMP), rank A < B < C
  precipitation in bags during the dialysis: precipitation was observed
[4]; sample C1 (0.083 g of 4.5% solution in NMP), 1 h
  % flumazenil released: 56.1%
[4]; sample C1 (0.083 g of 4.5% solution in NMP), 2 h
  % flumazenil released: 79.3%
[4]; sample C1 (0.083 g of 4.5% solution in NMP), 3 h
  % flumazenil released: 92.3%
[4]; sample C1 (0.083 g of 4.5% solution in NMP), 4 h
  % flumazenil released: 98.1%
[4]; sample C1 (0.083 g of 4.5% solution in NMP), 5 h
  % flumazenil released: 100.1%
[4]; sample C1 (0.083 g of 4.5% solution in NMP), 6 h
  % flumazenil released: 100.7%
[4]; sample C2 (0.083 g of 4.5% solution in NMP), 1 h
  % flumazenil released: 43.5%
[4]; sample C2 (0.083 g of 4.5% solution in NMP), 2 h
  % flumazenil released: 66.1%
[4]; sample C2 (0.083 g of 4.5% solution in NMP), 3 h
  % flumazenil released: 82.3%
[4]; sample C2 (0.083 g of 4.5% solution in NMP), 4 h
  % flumazenil released: 93.6%
[4]; sample C2 (0.083 g of 4.5% solution in NMP), 5 h
  % flumazenil released: 99.2%
[4]; sample C2 (0.083 g of 4.5% solution in NMP), 6 h
  % flumazenil released: 101.2%
[4]; sample C (0.083 g of 4.5% solution in NMP), rank A < B < C
  precipitation in bags during the dialysis: precipitation was observed
